Measured values: ChEMBL document CHEMBL1201862, “PubChem BioAssay data set” (2004)
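Step 1: Grow cells in 96-well plates. Step 2: Expose to compound for 48 hours at 5 concentrations. Step 3: Interpolate endpoints linearly; if unreached, use highest concentration. Here, GI50 denotes the concentration required for 50% inhibition of growth.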 Active and inactive are the calls of the source. Cut-off read from the data, not from the text of the source: active = GI50 up to about 1.1 µM and inactive = higher.

Columns and labels:
Test in all cases: inhibition of tumour cell growth, NCI panel, 48 h
SNB-75 = system: SNB-75
UO-31 = system: UO-31
M14 = system: M14
PC-3 = system: PC-3
RXF 393 = system: RXF 393
SK-MEL-2 = system: SK-MEL-2
EKVX = system: EKVX
HCC 2998 = system: HCC 2998
NCI-H460 = system: NCI-H460
MDA-MB-231 = system: MDA-MB-231
SN12C = system: SN12C
UACC-62 = system: UACC-62
K562 = system: K562
786-0 = system: 786-0
Hs-578T = system: Hs-578T
HOP-92 = system: HOP-92
CAKI-1 = system: CAKI-1
SK-MEL-28 = system: SK-MEL-28
UACC-257 = system: UACC-257
ACHN = system: ACHN
HCT-116 = system: HCT-116
SF-295 = system: SF-295
HOP-62 = system: HOP-62
SF-539 = system: SF-539
NCI-H226 = system: NCI-H226
MCF7 = system: MCF7
A549 = system: A549
IGROV-1 = system: IGROV-1
RPMI-8226 = system: RPMI-8226
MDA-N = system: MDA-N
KM12 = system: KM12
NCI/ADR-RES = system: NCI/ADR-RES
MDA-MB-435 = system: MDA-MB-435
NCI-H23 = system: NCI-H23
OVCAR-4 = system: OVCAR-4
HL-60 = system: HL-60
SNB-19 = system: SNB-19
TK-10 = system: TK-10
T47D = system: T47D
NCI-H522 = system: NCI-H522
SK-MEL-5 = system: SK-MEL-5
OVCAR-5 = system: OVCAR-5
HT-29 = system: HT-29
SR = system: SR
COLO 205 = system: COLO 205
SK-OV-3 = system: SK-OV-3
SF-268 = system: SF-268
OVCAR-8 = system: OVCAR-8
SW-620 = system: SW-620
U-251 = system: U-251
MOLT-4 = system: MOLT-4
LOX IMVI = system: LOX IMVI
BT-549 = system: BT-549
Malme-3M = system: Malme-3M
HCT-15 = system: HCT-15
DU-145 = system: DU-145
OVCAR-3 = system: OVCAR-3
CCRF-CEM = system: CCRF-CEM
A498 = system: A498

CCN(CC)c1nc(N(C)C)c2ccccc2n1
GI50 (SNB-75): 34.8 µM (inactive)
GI50 (UO-31): 19.3 µM (inactive)
GI50 (M14): 15.6 µM (inactive)
GI50 (PC-3): 26.4 µM (inactive)
GI50 (RXF 393): 24 µM (inactive)
GI50 (SK-MEL-2): 30.1 µM (inactive)
GI50 (EKVX): 10.3 µM (inactive)
GI50 (HCC 2998): 15.3 µM (inactive)
GI50 (NCI-H460): 25.4 µM (inactive)
GI50 (MDA-MB-231): 72.4 µM (inactive)
GI50 (SN12C): 20.9 µM (inactive)
GI50 (UACC-62): 14.9 µM (inactive)
GI50 (K562): 10.6 µM (inactive)
GI50 (786-0): 27.9 µM (inactive)
GI50 (Hs-578T): 53.3 µM (inactive)
GI50 (HOP-92): 43.3 µM (inactive)
GI50 (CAKI-1): 58.9 µM (inactive)
GI50 (SK-MEL-28): 31.8 µM (inactive)
GI50 (UACC-257): 26.7 µM (inactive)
GI50 (ACHN): 27.9 µM (inactive)
GI50 (HCT-116): 10.8 µM (inactive)
GI50 (SF-295): 33.1 µM (inactive)
GI50 (HOP-62): 49.3 µM (inactive)
GI50 (SF-539): 24.3 µM (inactive)
GI50 (NCI-H226): 15.9 µM (inactive)
GI50 (MCF7): 29.2 µM (inactive)
GI50 (A549): 25.8 µM (inactive)
GI50 (IGROV-1): 37 µM (inactive)
GI50 (RPMI-8226): 13.2 µM (inactive)
GI50 (MDA-N): 16.5 µM (inactive)
GI50 (KM12): 31.3 µM (inactive)
GI50 (NCI/ADR-RES): 22.5 µM (inactive)
GI50 (MDA-MB-435): 28.9 µM (inactive)
GI50 (NCI-H23): 23.2 µM (inactive)
GI50 (OVCAR-4): 54.1 µM (inactive)
GI50 (HL-60): 41.1 µM (inactive)
GI50 (SNB-19): 39.9 µM (inactive)
GI50 (TK-10): 44.7 µM (inactive)
GI50 (T47D): 22.9 µM (inactive)
GI50 (NCI-H522): 18.5 µM (inactive)
GI50 (SK-MEL-5): 15.1 µM (inactive)
GI50 (OVCAR-5): 25.5 µM (inactive)
GI50 (HT-29): 11.6 µM (inactive)
GI50 (SR): 7.78 µM (inactive)
GI50 (COLO 205): 19.4 µM (inactive)
GI50 (SK-OV-3): 38.8 µM (inactive)
GI50 (SF-268): 52.2 µM (inactive)
GI50 (OVCAR-8): 31 µM (inactive)
GI50 (SW-620): 32.1 µM (inactive)
GI50 (U-251): 28.4 µM (inactive)
GI50 (MOLT-4): 7.66 µM (inactive)
GI50 (LOX IMVI): 30.1 µM (inactive)
GI50 (BT-549): 48.1 µM (inactive)
GI50 (Malme-3M): 41.1 µM (inactive)
GI50 (HCT-15): 33.3 µM

CCOC(OCC)C(CCc1ccccc1)c1c(N)nc(N)[nH]c1=O (stereo unspecified)
GI50 (SNB-75): > 100 µM (inactive)
GI50 (UO-31): 34.8 µM (inactive)
GI50 (M14): 80.5 µM (inactive)
GI50 (PC-3): 39.3 µM (inactive)
GI50 (DU-145): 83.9 µM (inactive)
GI50 (RXF 393): 57.7 µM (inactive)
GI50 (SK-MEL-2): 53 µM (inactive)
GI50 (EKVX): 3.76 µM (inactive)
GI50 (HCC 2998): 26.1 µM (inactive)
GI50 (NCI-H460): 56.8 µM (inactive)
GI50 (MDA-MB-231): > 100 µM (inactive)
GI50 (SN12C): 56.8 µM (inactive)
GI50 (UACC-62): 46.1 µM (inactive)
GI50 (K562): 24.7 µM (inactive)
GI50 (786-0): 89.7 µM (inactive)
GI50 (Hs-578T): > 100 µM (inactive)
GI50 (HOP-92): 29.6 µM (inactive)
GI50 (OVCAR-3): 62.4 µM (inactive)
GI50 (CAKI-1): 34.9 µM (inactive)
GI50 (SK-MEL-28): > 100 µM (inactive)
GI50 (UACC-257): > 100 µM (inactive)
GI50 (HCT-116): 65.3 µM (inactive)
GI50 (SF-295): 53.1 µM (inactive)
GI50 (HOP-62): > 100 µM (inactive)
GI50 (SF-539): > 100 µM (inactive)
GI50 (NCI-H226): 41.2 µM (inactive)
GI50 (MCF7): 33.1 µM (inactive)
GI50 (A549): 54.1 µM (inactive)
GI50 (IGROV-1): 37.1 µM (inactive)
GI50 (RPMI-8226): 38.6 µM (inactive)
GI50 (KM12): 66.4 µM (inactive)
GI50 (NCI/ADR-RES): > 100 µM (inactive)
GI50 (MDA-MB-435): 32.4 µM (inactive)
GI50 (NCI-H23): 79.8 µM (inactive)
GI50 (OVCAR-4): 46.1 µM (inactive)
GI50 (HL-60): 25.2 µM (inactive)
GI50 (SNB-19): > 100 µM (inactive)
GI50 (CCRF-CEM): 53.6 µM (inactive)
GI50 (TK-10): 66.2 µM (inactive)
GI50 (T47D): 68.7 µM (inactive)
GI50 (SK-MEL-5): 47.6 µM (inactive)
GI50 (OVCAR-5): 13.5 µM (inactive)
GI50 (HT-29): 55.1 µM (inactive)
GI50 (SR): 32.4 µM (inactive)
GI50 (COLO 205): 17.4 µM (inactive)
GI50 (SK-OV-3): 25.9 µM (inactive)
GI50 (SF-268): 52 µM (inactive)
GI50 (OVCAR-8): > 100 µM (inactive)
GI50 (SW-620): 78.7 µM (inactive)
GI50 (A498): > 100 µM (inactive)
GI50 (U-251): 81.1 µM (inactive)
GI50 (MOLT-4): 34.3 µM (inactive)
GI50 (LOX IMVI): 64.3 µM (inactive)
GI50 (BT-549): 86.9 µM (inactive)
GI50 (Malme-3M): > 100 µM (inactive)
GI50 (HCT-15): 68.7 µM
